Read-outs that look alike come from different tables or passages of the source. One block for each molecule: values may come before it. Where no end group is shown, it is not given here.
Experiments:
[1] = test system: FSH levels; details: daily oral dosing throughout the menstrual cycle; cited from earlier work
Description: (§1) The effect of NKB/NKF peptides on gonadotropin secretion in fish is already well established. The first indication that NKB is widely expressed in fish species and has a stimulatory reproductive effect was shown in zebrafish, goldfish, and tilapia. […] Osetanant re ...

[2] = target: tiTac3Ra (Oreochromis niloticus, UniProt A0A075QPN8); assay: CRE-Luc antagonist assay, wild-type receptor, COS-7; assay type: cell-based, tilapia (Oreochromis niloticus); details: for IC50: antagonist 0.001–1000 μM added 10 min before peptide, COS-7, CRE-Luc
Sequence of tiTac3Ra (A0A075QPN8 entry or part of it): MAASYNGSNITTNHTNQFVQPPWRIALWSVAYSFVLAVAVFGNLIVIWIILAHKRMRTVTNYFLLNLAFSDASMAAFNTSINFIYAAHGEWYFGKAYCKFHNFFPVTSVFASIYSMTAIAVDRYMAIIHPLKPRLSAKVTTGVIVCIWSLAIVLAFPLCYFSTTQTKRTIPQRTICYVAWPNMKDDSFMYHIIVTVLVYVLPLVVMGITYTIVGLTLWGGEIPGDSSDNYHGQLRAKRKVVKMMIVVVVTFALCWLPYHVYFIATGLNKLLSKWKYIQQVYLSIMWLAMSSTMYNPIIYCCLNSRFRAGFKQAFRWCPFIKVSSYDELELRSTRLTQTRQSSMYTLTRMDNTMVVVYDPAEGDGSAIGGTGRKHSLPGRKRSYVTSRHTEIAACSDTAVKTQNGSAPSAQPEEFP
Procedure: (§2) In order to study the signaling pathways of the mutant tiTac3Ra, the entire coding regions of tiTac3Ra (GenBank accession no. KF471674), and both of the mutant receptors were inserted into pcDNA3.1 (Invitrogen, Massachusetts, United States). We used a sensitive luciferase (LUC) reporter gene assay. […] Transient transfection, cell procedures and stimulation protocols followed the procedures previously described. Briefly, 3 μg of each construct, together with 3 μg of a luciferase reporter plasmid were transiently transfected into COS-7 cells (American Type Culture Collection, Manassas, VA, USA). Forty-eight hours after transfection, cells transfected with Tac3Ra plasmid fused with GFP were applied with an Hoechst dye (Invitrogen, Massachusetts, United States; diluted 1:1000) in order to mark nuclei in the culture for transfection analysis.
Non-peptide molecules, SB-222200 (Sigma, Merck, Darmstadt, Germany) and Osanetant (Axon Medchem, Reston, VA, USA), known to antagonize mammalian NK3R [49] were studied for their ability to antagonize tiTac3Ra, which was activated with a fixed dose of the native ligands (10 nM tiNKB or tiNKF), combined with increasing doses of the antagonists (0.001–1000 μM). The antagonists were added 10 min prior to the addition of the peptides. IC50 values were calculated from concentration response curves by means of computerized nonlinear curve-fitting with Prism version 9 software (GraphPad, San Diego, CA, USA). All experiments were repeated at least 3 times using cells from independent transfections, each performed in triplicate.
NKB antagonists, SB-222200 (Figure 7A) and Osanetant (Figure 7B) were added in increasing concentrations (0.001–1000 μM) to transfected COS-7 that expressed tiTac3Ra. Ten minutes after the induction of the antagonists, the ligand, tiNKB or tiNKF (10 nM) was added to the media.

[3] = test system: LH plasma levels; assay: In vivo effect of NKB antagonists on LH plasma levels (ELISA); set-up: species or system adult male tilapia (Oreochromis niloticus); details: antagonist 100 µg/kg BW IP, then sGnRHa 10 µg/kg BW after 0.5 h; n = 10
Procedure: (§3) The levels of FSH, LH and GH in the plasma were measured by specific competitive enzyme-linked immunosorbent assay (ELISA), developed for tilapia, based on recombinant gonadotropins or GH that were created by using the yeast Pichia pastoris. For the ELISAs, we used primary antibody antisera against GH [51], FSHβ [52], or against rtLHβ [53], and rtFSHβα [52], rtLHβ [53] or tiGH for the standard curves. Sensitivity for the plasma measurements were 15.84 pg/mL for LH, 0.24 pg/mL for FSH and 30.0 pg/mL for GH. The inter-assay coefficient of variation (CV) was 14.8, 12.5, and 13.0%, while intra-assay CV was 7.2, 8.0, and 8.0% for LH, FSH and GH, respectively.
(§4) Adult male tilapia (BW 89.29 ± 32.93 g; gonado-somatic index (GSI) 0.24% ± 0.40%) were injected IP (intraperitoneal) with NKB antagonists, SB-222200 or Osanetant (100 µg/kg BW), and after 0.5 h, a second injection of sGnRHa (10 µg/kg BW) was added. Control groups were injected with sGnRHa ([DAla^6, Pro^9-Net]-mammalian GnRH; Bachem, Budendorf, Switzerland) 10 µg/kg BW) as a positive control. The fish were bled from the caudal blood vessels into heparinized syringes 0, 0.5, 2, 6 and 24 h after injection. This time course is according to standard protocols used previously to test the effect of GnRH on circulating levels of LH, FSH, and GH in tilapia. Blood samples were collected from the caudal vasculature and centrifuged (3200 rpm for 30 min at 4 °C) (Centrifuge: Fresco 17, Rotor: 75003424, Thermo Scientific™, Langenselbold Germany) to obtain plasma samples, which were stored at −20 °C until assayed. Three independent experiments were carried out for the in-vivo studies.

[4] = test system: FSH plasma levels; assay: In vivo effect of NKB antagonists on FSH plasma levels (ELISA); set-up: species or system adult male tilapia (Oreochromis niloticus); details: antagonist 100 µg/kg BW IP, sGnRHa 10 µg/kg BW after 0.5 h; n = 10
Procedure: as §3
as §4, with “Blood samples were collected from the caudal vasculature and centrifuged (3200 rpm for 30 min at 4 °C) (Centrifuge: Fresco 17, Rotor: 75003424, Thermo Scientific™, Langenselbold Germany) to obtain plasma samples, which were stored at −20 °C until assayed. Three independent experiments were carried out for the in-vivo studies.” left out

[5] = test system: FSH and LH release; details: in vivo and in vitro; cited from earlier work
Description: as §1

[6] = target: native tilapia Tac3Ra (WT); assay: CRE-Luc receptor transactivation assay, wild-type receptor, COS-7; assay type: cell-based, tilapia (Oreochromis niloticus)
Procedure: as §2
(§5) Cells transfected with the tiTac3Ra construct and luciferase reporter plasmid were treated with tilapia NKB (tiNKB) and tiNKF at increasing doses (0.2–1000 nM). Luciferase activity (Luc) was measured, and compared to basal treatment, and the maximal effect (Luc fold activation) was calculated for each treatment.

[7] = test system: tiTac3Ra mutant F251A; assay: CRE-Luc receptor transactivation assay, F251A mutant, COS-7; assay type: cell-based, tilapia (Oreochromis niloticus)
Description: (§6) The expression vector for tilapia tiTac3Ra (GenBank accession no. KF471674) was modified with the Stratagene QuikChange mutagenesis kit (Stratagene, La Jolla, CA, USA), according to the manufacturer’s instructions using two complementary primers (Table 1). The procedure included 18 PCR cycles as specified by the manufacturer’s manual, and the use of Pfu polymerase for the reaction. The mutated construct was then digested with the restriction enzyme DpnI, which is specific to methylated and hemi-methylated DNA, to digest the template and to select the mutation-containing synthesized DNA. The vector was then transfected into XL1 competent cells (E.coli). Two colonies were sequenced and confirmed to contain the mutation without any undesired misincorporation of nucleotides.
(§7) In order to study the signaling pathways of the mutant tiTac3Ra, the entire coding regions of tiTac3Ra (GenBank accession no. KF471674), and both of the mutant receptors were inserted into pcDNA3.1 (Invitrogen, Massachusetts, United States). We used a sensitive luciferase (LUC) reporter gene assay. […]
as §5

[8] = test system: tiTac3Ra mutant M289A; assay: CRE-Luc receptor transactivation assay, M289A mutant, COS-7; assay type: cell-based, tilapia (Oreochromis niloticus)
Description: as §6, §7, §5

[9] = target: tiTac3Ra F251A mutant (Nile tilapia (Oreochromis niloticus))
[10] = target: tiTac3Ra M289A mutant (Nile tilapia (Oreochromis niloticus))
[11] = target: tilapia Tachykinin 3 receptor a (tiTac3Ra), wild type (Nile tilapia (Oreochromis niloticus))

Molecule: Cc1nsc(-c2nnc3n2CCN(C(=O)c2ccc(F)cc2)[C@@H]3C)n1 [ESN364]
FSH levels [1]: did not alter FSH levels

IC50 ([2]; 10 nM tiNKB, read-out: IC50 versus tiNKB): 212000 nM
IC50 ([2]; 10 nM tiNKF, read-out: IC50 versus tiNKF): 122000 nM
inhibitory effect on Tac3Ra activation ([2]; in words): strong inhibitory effect
Molecule: CC(=O)N(C)C1(c2ccccc2)CCN(CCC[C@]2(c3ccc(Cl)c(Cl)c3)CCCN(C(=O)c3ccccc3)C2)CC1 [Osanetant]
LH release, combination with sGnRHa [3]: no inhibitory effects on LH plasma levels
FSH levels, 2 h post injection, combination with sGnRHa [4]: increased FSH levels

Molecule: Succ-Asp-Ile-Phe-N(Me)Ile-Gly-Leu-Met-NH2 [tiNKB analog, tiNKB analog (Succ-Asp-Ile-Phe-N(Me)Ile-Gly-Leu-Met-NH2)]
FSH and LH release [5]: significantly increased FSH and LH release both in-vivo and in-vitro

Molecule: Succ-Asp-Ile-Phe-N(Me)Val-Gly-Leu-Met-NH2 [zfNKBa analog, zfNKBa analog (Succ-Asp-Ile-Phe-N(Me)Val-Gly-Leu-Met-NH2)]
FSH and LH release [5]: significantly increased FSH and LH release both in-vivo and in-vitro

Molecule: Succ-Asp-Phe-N(Me)Val-Gly-Leu-Met-NH2 [zfNKBb analog, zfNKBb analog (Succ-Asp-Phe-N(Me)Val-Gly-Leu-Met-NH2)]
FSH and LH release [5]: significantly increased FSH and LH release both in-vivo and in-vitro

Molecule: Succ-Asp-Ser-Phe-N(Me)Val-Gly-Leu-Met-NH2 [NKF analog, NKF analog (Succ-Asp-Ser-Phe-N(Me)Val-Gly-Leu-Met-NH2)]
FSH and LH release [5]: significantly increased FSH and LH release both in-vivo and in-vitro

Molecule: pyroglutaminated [p]-EMDDIFIGLM-NH2 [tiNKB, native tilapia Neurokinin B peptide, synthesized by GL Biochem]
EC50 ([6]; CRE-Luc, COS-7, 0.2–1000 nM, calculated when max effect >2.0): 2.48 ± 0.05 nM
Min effective dose ([6]; CRE-Luc, COS-7, WT): 0.316 nM
Max effect (Luc fold activation) ([6]; WT, COS-7, CRE-Luc, vs basal, 0.2–1000 nM): 3.36 ± 0.46 Luc fold activation
Max effect (Luc fold activation) ([7]; F251A, COS-7, CRE-Luc, vs basal, 0.2–1000 nM): 2.0 ± 0.32 Luc fold activation
receptor activity of mutant versus WT (CRE-luciferase) ([7]; Phe251^6.44Ala, 0.2–1000 nM peptide): substantial decrease in receptor activity
Max effect (Luc fold activation) ([8]; M289A, COS-7, CRE-Luc, vs basal, 0.2–1000 nM): 1.71 ± 0.46 Luc fold activation
receptor activity of mutant versus WT (CRE-luciferase) ([8]; Met289^7.43Ala, 0.2–1000 nM peptide): substantial decrease in receptor activity

Max effect (Luc fold activation), CRE-luciferase receptor transactivation in transfected COS-7 cells, peptide 0.2-1000 nM (Luc fold activation) [9]: 1.99
Max effect (Luc fold activation), CRE-luciferase receptor transactivation in transfected COS-7 cells, peptide 0.2-1000 nM (Luc fold activation) [10]: 1.84
EC50 (nM) of CRE-luciferase receptor transactivation in transfected COS-7 cells, peptide 0.2-1000 nM [11]: 65.2 nM
Max effect (Luc fold activation), CRE-luciferase receptor transactivation in transfected COS-7 cells, peptide 0.2-1000 nM (Luc fold activation) [11]: 3.87
Min effective dose (nM), CRE-luciferase receptor transactivation in transfected COS-7 cells [11]: 0.316 nM
Molecule: YNDLDYDSFVGLM-NH2 [Tilapia NKF (neurokinin F)]

Max effect (Luc fold activation), CRE-luciferase receptor transactivation in transfected COS-7 cells, peptide 0.2-1000 nM (Luc fold activation) [9]: 2
Max effect (Luc fold activation), CRE-luciferase receptor transactivation in transfected COS-7 cells, peptide 0.2-1000 nM (Luc fold activation) [10]: 1.71
EC50 (nM) of CRE-luciferase receptor transactivation in transfected COS-7 cells, peptide 0.2-1000 nM [11]: 2.48 nM
Max effect (Luc fold activation), CRE-luciferase receptor transactivation in transfected COS-7 cells, peptide 0.2-1000 nM (Luc fold activation) [11]: 3.36
Min effective dose (nM), CRE-luciferase receptor transactivation in transfected COS-7 cells [11]: 0.316 nM
B1: Tilapia NKB (neurokinin B) (peptide)
peptide: EMDDIFIGLM
HELM: PEPTIDE1{[Glp].M.D.D.I.F.I.G.L.M.[am]}$$$$V2.0
SMILES: CC[C@H](C)[C@H](NC(=O)[C@H](Cc1ccccc1)NC(=O)[C@@H](NC(=O)[C@H](CC(=O)O)NC(=O)[C@H](CC(=O)O)NC(=O)[C@H](CCSC)NC(=O)[C@@H]1CCC(=O)N1)[C@@H](C)CC)C(=O)NCC(=O)N[C@@H](CC(C)C)C(=O)N[C@@H](CCSC)C(N)=O

Source: PMC8533089, “Characteristics of Neurokinin-3 Receptor and Its Binding Sites by Mutational Analysis” (Biology, 2021)
